{
  "source": "patent EP4563149A1",
  "about": "“LURBINECTEDIN, ECUBECTEDIN AND A RELATED COMPOUND FOR USE IN THE TREATMENT OF SKIN CANCERS” (Pharma Mar, S.A., priority 2023, dated 2025)",
  "key": {"[1]": {"system": "IGR-37 melanoma xenografts", "conditions": "1.2 mg/kg intravenous", "experimental": "Female athymic nu/nu mice (Harlan Laboratories Models, S.L. Barcelona, Spain or Envigo, Spain) were utilized for all experiments. Animal were housed in individually ventilated cages Sealsafe® Plus, Techmplast S.P.A.), up to ten per cage on a 12-hour light-dark cycle at 21-23 °C and 40-60 % humidity. Mice were allowed free access to irradiated standard rodent diet (Tecklad 2914C) and sterilized water. Animals were acclimated for at least 5 days prior to tumor implantation with a tumor cell suspension.\nThe cell line used are: • 501mel • IGR-37 • SK-Mel-28 • WM-266-4 • LOX-IMVI • 501mel^Vemur\nIn xenograft studies with cell lines: • Tumour volume was calculated using the equation […], where a: length (longest diameter) and b: width (shortest diameter) were measured in mm by using digital caliper (Fowler Sylvac, S235PAT). Tumour dimensions and body weights were recorded 2-3 times per week starting from the first day of treatment. • When tumors reached ca. 150-250 mm^3, tumour bearing animals (N = 8-10/group) were randomly allocated into the treatment groups, based on body weight and tumour measurements by using NewLab Oncology Software (version 2.25.06.00). • Comparison between median tumour volume of treated and placebo groups was used for evaluation of the antitumoural efficacy. • Animals were euthanized when their tumours reached ca. 1,500 mm^3 and/or severe necrosis was seen.\nTreatments producing >20 % lethality and/or 20% net body weight loss were considered toxic.\nIn these experiments, PM14 and Compound IA, as well as placebo, were intravenously administered once per week for 3 consecutive weeks, on days 0, 7 and 14, whenever it was possible.\nTable 5. Tumour volume evaluation in IGR-37 melanoma xenografts with PM14 and Compound IA and placebo."}, "[2]": {"system": "RPB1 (RNA pol II elongation subunit)", "experiment": "Immunoblotting of RPB1 in 501mel", "assay_type": "cell-based, human", "conditions": "24h at 5×IC50", "experimental": "Cells were washed once with cold PBS, rinsed with a cell scraper, pelleted and resuspended in LSDB 0.5M buffer (0.5M KCI, 50mM Tris HCl pH 7.9, 20% Glycerol, 1% NP40, 1mM DTT, PIC). Afterwards cells were fully disrupted with 3 cycles of heat shock in liquid nitrogen and 37°C water bath and centrifugated 15min at 14,000rpm to pellet cell debris. Ten micrograms of extract were loaded on SDS-PAGE before transfer to nitro-cellulose membranes and immunoblotting."}, "[3]": {"system": "melanoma cell cultures or cell lines", "experiment": "Clonogenic assay", "assay_type": "cell-based, human", "conditions": "48h at IC50 concentrations, then 10 days without drug", "experimental": "Based on the cell viability assays conducted above, the efficacy of lurbinectedin, PM14 or Compound IA on melanoma cell proliferation was investigated. Initially, a clonogenic assay was performed. Cells were drug-treated at IC50 concentrations during 48h before seeding 1×10^3 or 2×10^3 cells in 6-well plates without drug, wherein they grew for 10 days to allow for colony formation. Afterwards, cells were fixed for 10min with 4% formaldehyde solution, washed once with PBS and stained with Crystal Violet solution 0.2% for 15 min. The wells were finally washed twice with deionized water, air dried, scanned and analyzed with Fiji software to count the number of colonies."}, "MM074 and MM029 cells": {"system": "MM074 and MM029 cells", "conditions": "MM074 and MM029, 10×IC50 for 8h", "description": "Purified RNA was subjected to library preparation and high throughput sequencing on Illumina NovaSeq as signal-read 50 base reads following manufacturer's instructions. Sequenced samples were analyzed using nf-core RNAseq pipeline v1.3, quality controlled, trimmed, and aligned to the reference human genome using HISAT2. The identification and quantification of transcripts were performed using feature Counts from subread package. Differential expressed gene (DEG) analysis were done using DeSeq2."}},
  "note": "Read-outs that look alike come from different tables or passages of the source.",
  "data": [
    {"smiles": "COc1c(C)cc2c(c1O)[C@@H]1[C@@H]3[C@@H]4SC[C@]5(N[C@H](CO)Cc6c5oc5ccccc65)C(=O)OC[C@@H](c5c6c(c(C)c(OC(C)=O)c54)OCO6)N3[C@@H](O)[C@H](C2)N1C", "note": "[Compound IA]", "values": [
      {"measurement": "Median Tumour Volume", "setting": "[1]; days 0, 7 and 14, day 0", "value": 150, "unit": "mm^3"},
      {"measurement": "Median Tumour Volume", "setting": "[1]; days 0, 7 and 14, day 2", "value": 236.5, "unit": "mm^3"},
      {"measurement": "Median Tumour Volume", "setting": "[1]; days 0, 7 and 14, day 4", "value": 377.5, "unit": "mm^3"},
      {"measurement": "Median Tumour Volume", "setting": "[1]; days 0, 7 and 14, day 7", "value": 608, "unit": "mm^3"},
      {"measurement": "Median Tumour Volume", "setting": "[1]; days 0, 7 and 14, day 9", "value": 886.9, "unit": "mm^3"},
      {"measurement": "Median Tumour Volume", "setting": "[1]; days 0, 7 and 14, day 14", "value": "1,163.9 mm^3"},
      {"measurement": "Median Tumour Volume", "setting": "[1]; days 0, 7 and 14, day 16", "value": 936.5, "unit": "mm^3"},
      {"measurement": "Median Tumour Volume", "setting": "[1]; days 0, 7 and 14, day 18", "value": "1,027.6 mm^3"},
      {"measurement": "RPB1 (RNA pol II elongation subunit) degradation", "setting": "[2]", "value": "pronounced"},
      {"measurement": "colony formation (number of colonies)", "setting": "[3]", "value": "significant impact"},
      {"measurement": "transcriptional effects compared to lurbinectedin", "setting": "MM074 and MM029 cells", "value": "dissimilar and fewer genes being deregulated"}
    ]},
    {"smiles": "COc1c(C)cc2c(c1O)[C@@H]1[C@@H]3[C@@H]4SC[C@]5(N[C@H](CO)Cc6c5[nH]c5ccccc65)C(=O)OC[C@@H](c5c6c(c(C)c(OC(C)=O)c54)OCO6)N3[C@@H](O)[C@H](C2)N1C", "note": "[PM14, ecubectedin]", "values": [
      {"measurement": "Median Tumour Volume", "setting": "[1]; days 0, 7 and 14, day 0", "value": 150.4, "unit": "mm^3"},
      {"measurement": "Median Tumour Volume", "setting": "[1]; days 0, 7 and 14, day 2", "value": 216.6, "unit": "mm^3"},
      {"measurement": "Median Tumour Volume", "setting": "[1]; days 0, 7 and 14, day 4", "value": 326.3, "unit": "mm^3"},
      {"measurement": "Median Tumour Volume", "setting": "[1]; days 0, 7 and 14, day 7", "value": 544.5, "unit": "mm^3"},
      {"measurement": "Median Tumour Volume", "setting": "[1]; days 0, 7 and 14, day 9", "value": 704.9, "unit": "mm^3"},
      {"measurement": "Median Tumour Volume", "setting": "[1]; days 0, 7 and 14, day 11", "value": 821.6, "unit": "mm^3"},
      {"measurement": "Median Tumour Volume", "setting": "[1]; days 0, 7 and 14, day 14", "value": "1,127.4 mm^3"},
      {"measurement": "Median Tumour Volume", "setting": "[1]; days 0, 7 and 14, day 16", "value": "1,351.7 mm^3"},
      {"measurement": "Median Tumour Volume", "setting": "[1]; days 0, 7 and 14, day 18", "value": "1,594 mm^3"},
      {"measurement": "RPB1 (RNA pol II elongation subunit) degradation", "setting": "[2]", "value": "pronounced"},
      {"measurement": "colony formation (number of colonies)", "setting": "[3]", "value": "significant impact"}
    ]}
  ]
}
